Values joined by “and” are separate entries in the source; they are usually repeats but may differ in a detail not shown here. Equal values may be shown once. Read-outs that look alike come from different tables or passages of the source.
Tested on: T. brucei lysate proteins
Format: binding, Trypanosoma brucei

## Nc1nc2c(c(=O)[nH]1)N(C=O)C(CNc1ccc(C(=O)N[C@@H](CCC(=O)O)C(=O)O)cc1)CN2 (stereo partly drawn) [LEU, leucovorin]
  fold change vs vehicle control: 0.89 and 1.1 and 1.13
Protein CZB00000046.1 HA-UBIQUITIN, vehicle control = 1
  fold change: 0.69
Protein CZT00008884.1 […]-ASSOCIATED GENE 3 (ESAG3) PROTEIN, vehicle control = 1
  fold change: 1.21
Protein CZT00018965.1 RETRO[…] (RHS) PROTEIN 1, vehicle control = 1
  fold change: 1.3
Protein TB09.160.3270 ATP-DEPENDENT DEAD BOX HELICASE, PUTATIVE, vehicle control = 1
  fold change vs vehicle control: 1.53
Protein TB09.160.3710 PRO[…] NUCLEAR ANTIGEN (PCNA), PUTATIVE, vehicle control = 1
  fold change: 1
Protein TB09.160.4200 60S ACIDIC RIBOSOMAL PROTEIN, PUTATIVE, vehicle control = 1
  fold change vs vehicle control: 1.11
Protein TB09.160.4250 TR[…], vehicle control = 1
  fold change vs vehicle control: 1.26
Protein TB09.211.3540 GLYCEROL KINASE, GLYCOSOMAL, vehicle control = 1
  fold change: 1.39
Protein TB11.01.0450 PROTEIN PHOSPHATASE 1, PUTATIVE, vehicle control = 1
  fold change: 0.92
Protein TB11.01.1690 HY[…], CONSERVED, vehicle control = 1
  fold change: 1.4
Protein TB11.01.2560 40S RIBOSOMAL PROTEIN SA, PUTATIVE, vehicle control = 1
  fold change vs vehicle control: 0.87
Protein TB11.01.3560 VACUOLAR ATP SYNTHASE SUBUNIT B, PUTATIVE, vehicle control = 1
  fold change: 0.9
Protein TB11.01.4370 HY[…], CONSERVED, vehicle control = 1
  fold change vs vehicle control: 1.1
Protein TB11.01.5350 PROFILIN, vehicle control = 1
  fold change: 1.27
Protein TB11.01.8740 PROTEIN PHOSPHATASE 4, PUTATIVE, vehicle control = 1
  fold change: 0.73
Protein TB11.02.1135 DYNEIN LIGHT CHAIN, PUTATIVE, vehicle control = 1
  fold change vs vehicle control: 1.39
Protein TB11.02.2040 HY[…], CONSERVED (ALBA-Domain Protein), vehicle control = 1
  fold change vs vehicle control: 1.42
Protein TB11.02.2510 GUANINE NUCLEOTIDE-BINDING BETA SUBUNIT-LIKE PROTEIN, vehicle control = 1
  fold change vs vehicle control: 0.98
Protein TB11.02.2960 MIT[…] PROTEIN, PUTATIVE, vehicle control = 1
  fold change: 0.69
Protein TB11.02.4170 40S RIBOSOMAL PROTEIN S5, PUTATIVE, vehicle control = 1
  fold change vs vehicle control: 1.44
Protein TB11.03.0250 C[…], vehicle control = 1
  fold change vs vehicle control: 1.92
Protein TB11.03.0530 HY[…], CONSERVED (hy[…] SCD6.10), vehicle control = 1
  fold change vs vehicle control: 0.99
Protein TB427TMP.01.0480 HY[…], CONSERVED, vehicle control = 1
  fold change vs vehicle control: 1.07
Protein TB427TMP.01.1470 60S RIBOSOMAL PROTEIN L10A, PUTATIVE, vehicle control = 1
  fold change: 0.96
Protein TB427TMP.01.1680 POLYUBIQUITIN, PUTATIVE, vehicle control = 1
  fold change vs vehicle control: 1.44
Protein TB427TMP.01.2460 HY[…], CONSERVED, vehicle control = 1
  fold change: 0.97
Protein TB427TMP.01.3370 […] PROTEIN, PUTATIVE, vehicle control = 1
  fold change vs vehicle control: 1.11
Protein TB427TMP.01.4280 HY[…], CONSERVED, vehicle control = 1
  fold change vs vehicle control: 1.18
Protein TB427TMP.01.4650 HY[…], CONSERVED, vehicle control = 1
  fold change: 0.86
Protein TB427TMP.01.5680 HY[…], CONSERVED, vehicle control = 1
  fold change vs vehicle control: 1.44
Protein TB427TMP.01.5690 DRBD4, vehicle control = 1
  fold change vs vehicle control: 0.99
Protein TB427TMP.01.5960 MIT[…] PROTEIN, PUTATIVE, vehicle control = 1
  fold change: 0.85
Protein TB427TMP.01.6180 HY[…], CONSERVED, vehicle control = 1
  fold change: 0.75
Protein TB427TMP.01.6890 SMALL GTPASE, PUTATIVE, vehicle control = 1
  fold change vs vehicle control: 2.02
Protein TB427TMP.01.7490 HY[…], CONSERVED, vehicle control = 1
  fold change: 0.86
Protein TB427TMP.01.7530 HY[…], CONSERVED, vehicle control = 1
  fold change vs vehicle control: 1.1
Protein TB427TMP.01.8390 HY[…], CONSERVED, vehicle control = 1
  fold change: 0.84
Protein TB427TMP.01.8570 DYNEIN LIGHT IN[…] D1BLIC, PUTATIVE, vehicle control = 1
  fold change: 0.9
Protein TB427TMP.02.0030 DYNEIN HEAVY CHAIN, PUTATIVE, vehicle control = 1
  fold change: 0.83
Protein TB427TMP.02.0460 NUCLEOPORIN, vehicle control = 1
  fold change: 0.84
Protein TB427TMP.02.0760 DYNEIN HEAVY CHAIN, PUTATIVE, vehicle control = 1
  fold change: 0.55
Protein TB427TMP.02.4100 PRETRA[…], ALPHA SUBUNIT, PUTATIVE, vehicle control = 1
  fold change: 1.41
Protein TB427TMP.02.4300 HY[…], CONSERVED, vehicle control = 1
  fold change vs vehicle control: 1.07
Protein TB427TMP.02.4550 HY[…], CONSERVED, vehicle control = 1
  fold change: 0.97
Protein TB427TMP.02.5660 HY[…], CONSERVED, vehicle control = 1
  fold change: 0.76
Protein TB427TMP.02.5720 RIBONUCLEOSIDE-DIPHOSPHATE REDUCTASE LARGE CHAIN, vehicle control = 1
  fold change vs vehicle control: 0.95
Protein TB427TMP.03.0150 HY[…], CONSERVED, vehicle control = 1
  fold change: 0.88
Protein TB427TMP.160.2370 HY[…], CONSERVED, vehicle control = 1
  fold change: 0.95
Protein TB427TMP.160.4310 GLUTAMATE DEHYDROGENASE, vehicle control = 1
  fold change: 0.99
Protein TB427TMP.160.4560 ARGININE KINASE, vehicle control = 1
  fold change vs vehicle control: 2.29
Protein TB427TMP.160.4620 INOSITOL-1(OR 4)-MONOPHOSPHATASE, PUTATIVE, vehicle control = 1
  fold change vs vehicle control: 1.07
Protein TB427TMP.160.4630 HY[…], CONSERVED, vehicle control = 1
  fold change vs vehicle control: 1
Protein TB427TMP.160.4770 PROTEIN KINASE, PUTATIVE, vehicle control = 1
  fold change: 0.91
Protein TB427TMP.160.4910 FLAVOPROTEIN MONOOXYGENASE, PUTATIVE, vehicle control = 1
  fold change: 0.97
Protein TB427TMP.160.5670 HY[…], CONSERVED, vehicle control = 1
  fold change: 0.81
Protein TB427TMP.211.2730 GIM5A PROTEIN, vehicle control = 1
  fold change: 1.23
Protein TB427TMP.211.3140 HY[…], CONSERVED, vehicle control = 1
  fold change vs vehicle control: 1.57
Protein TB427TMP.211.3510 ATP-DEPENDENT DEAD/H RNA HELICASE, PUTATIVE, vehicle control = 1
  fold change vs vehicle control: 0.96
Protein TB427TMP.22.0003 PHOSPH[…], PUTATIVE, vehicle control = 1
  fold change vs vehicle control: 0.99
Protein TB427TMP.46.0001 60S ACIDIC RIBOSOMAL SUBUNIT PROTEIN, PUTATIVE, vehicle control = 1
  fold change: 0.96
Protein TB427TMP.47.0011 HY[…], CONSERVED, vehicle control = 1
  fold change: 0.89
Protein TB427TMP.55.0006 INTR[…] PROTEIN IFT88, vehicle control = 1
  fold change vs vehicle control: 1.07
Protein TB427TMP.57.0008 CALPAIN-LIKE PROTEIN, PUTATIVE, vehicle control = 1
  fold change vs vehicle control: 0.86
Protein TB427.01.120 RETRO[…] SPOT (RHS) PROTEIN, PUTATIVE, vehicle control = 1
  fold change vs vehicle control: 0.97
Protein TB427.01.2570 COATOMER BETA SUBUNIT, vehicle control = 1
  fold change: 0.97
Protein TB427.01.420 RETRO[…] SPOT (RHS) PROTEIN, PUTATIVE, vehicle control = 1
  fold change: 1.1
Protein TB427.02.3880 HET[…] RIBONUC[…]/F, PUTATIVE, vehicle control = 1
  fold change vs vehicle control: 1.3
Protein TB427.02.5800 SEDOHEPTULOSE-1,7-BISPHOSPHATASE, vehicle control = 1
  fold change vs vehicle control: 1.36
Protein TB427.02.6050 BETA PRIME COP PROTEIN, vehicle control = 1
  fold change vs vehicle control: 1.34
Protein TB427.03.1790 PYRUVATE DEHYDROGENASE E1 BETA SUBUNIT, PUTATIVE, vehicle control = 1
  fold change: 0.98
Protein TB427.03.3160 POLY(A) POLYMERASE, vehicle control = 1
  fold change vs vehicle control: 1.23
Protein TB427.03.3950 HY[…], CONSERVED, vehicle control = 1
  fold change vs vehicle control: 0.86
Protein TB427.03.4040 HY[…], CONSERVED (Ankyrinrepeat), vehicle control = 1
  fold change vs vehicle control: 3.1
Protein TB427.04.1300 HY[…], CONSERVED, vehicle control = 1
  fold change: 1.3
Protein TB427.04.1510 PHOSPHOLIPID-TRA[…], PUTATIVE, vehicle control = 1
  fold change vs vehicle control: 0.95
Protein TB427.04.1660 MIT[…] PROTEIN, PUTATIVE, vehicle control = 1
  fold change vs vehicle control: 1
Protein TB427.04.310 HY[…], CONSERVED, vehicle control = 1
  fold change: 0.93
Protein TB427.04.420 PHOSPHATIDYLINOSITOL 3-KINASE (TOR2), vehicle control = 1
  fold change: 0.74
Protein TB427.04.450 COATOMER ALPHA SUBUNIT, PUTATIVE, vehicle control = 1
  fold change: 1.1
Protein TB427.04.5010 CALRETICULIN, PUTATIVE, vehicle control = 1
  fold change: 2.06
Protein TB427.04.5200 NUCLEOPORIN (NUP54/57), PUTATIVE, vehicle control = 1
  fold change: 0.9
Protein TB427.05.1210 SHORT-CHAIN DEHYDROGENASE, PUTATIVE, vehicle control = 1
  fold change: 1.33
Protein TB427.05.1320 HY[…], CONSERVED, vehicle control = 1
  fold change vs vehicle control: 1.07
Protein TB427.05.1700 R[…] A 28 KDA SUBUNIT, PUTATIVE, vehicle control = 1
  fold change vs vehicle control: 1.31
Protein TB427.05.3260 HY[…], CONSERVED, vehicle control = 1
  fold change vs vehicle control: 0.99
Protein TB427.05.3400 CALCIUM-TRA[…]-TYPE ATPASE, vehicle control = 1
  fold change: 1.28
Protein TB427.05.4560 GUANINE DEAMINASE, PUTATIVE, vehicle control = 1
  fold change vs vehicle control: 0.95
Protein TB427.06.1500 ALKYL-DIHYDR[…] SYNTHASE, vehicle control = 1
  fold change vs vehicle control: 0.97
Protein TB427.06.3500 ENDOSOMAL T[…] RME-8, PUTATIVE, vehicle control = 1
  fold change: 0.71

Reference: publication PMC6199744, “Development of Chemical Proteomics for the Folateome and Analysis of the Kinetoplastid Folateome” (ACS Infectious Diseases, 2018)
